# Experimental data as given in patent publication US20110311601A1, “ANTIMICROBIAL MEDICAL DEVICES” (priority 2010, published 2011).
# Where no end group is shown, it is not given here.
# Columns and labels:
# Test in all cases: micro-dilution assay (MBC, LD90)
# Assay type in all cases: cell-based
# [1] = test system: Stenotrophomonas maltophilia ATCC 17666
# Method in brief: (§1)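 Washed cells at 10^4 cells/ml in 10 mM sodium phosphate, pH 7.2, were exposed to hβD2 at final 0.0125–100 mg/l for 2 h (37° C bacteria, 30° C fungi). CFU were counted after overnight plating and expressed as % killing versus an untreated control; MBC = 99.9% kill, LD90 = 90% kill.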
# [2] = test system: Klebsiella pneumoniae ATCC 700603 ESBL
# Method in brief: as §1
# [3] = test system: Staphylococcus aureus (MRSA 358) (wild-type)
# Method in brief: as §1
# [4] = test system: E. coli (ESBI 4) Va 10866/02 (wild-type)
# Method in brief: as §1
# [5] = test system: E. coli (ESBL 9) UR 2217/03 (wild-type)
# Method in brief: as §1
# [6] = test system: Citrobacter freundii NCTC 9750
# Method in brief: as §1
# [7] = test system: Enterococcus faecalis ATCC 51299 VRE
# Method in brief: as §1
# [8] = test system: Enterobacter aerogenes Va 12738/03 (wild-type)
# Method in brief: as §1
# [9] = test system: Acinetobacter lwoffii ATCC 15309
# Method in brief: as §1
# [10] = test system: Candida glabrata ATCC 90030
# Method in brief: as §1
# [11] = test system: Acinetobacter junii ATCC 17908
# Method in brief: as §1
# [12] = test system: Cryptococcus neoformans ATCC 62066
# Method in brief: as §1
# [13] = test system: Propionibacterium acnes NCTC 737
# Method in brief: as §1
# [14] = test system: Yersinia enterococcus NCTC 11174
# Method in brief: as §1
# [15] = test system: Klebsiella pneumoniae ATCC 13883
# Method in brief: as §1
# [16] = test system: Acinetobacter Genosp. 10 ATCC 17924
# Method in brief: as §1
# [17] = test system: Candida albicans C.a 14 (wild-type)
# Method in brief: as §1
# [18] = test system: Providencia stuartii NCTC 10318
# Method in brief: as §1
# [19] = test system: Issatchenkia orientalis ATCC 6258
# Method in brief: as §1
# [20] = test system: Enterobacter cloacae ATCC 13047
# Method in brief: as §1
# [21] = test system: Klebsiella pneumoniae (ESBL) CF 2 (wild-type)
# Method in brief: as §1
# [22] = test system: Helicobacter pylori ATCC 49503
# Method in brief: as §1
# [23] = test system: Candida glabrata BK 9570/02 (wild-type)
# Method in brief: as §1
# [24] = test system: Proteus vulgaris BK 8730/99 (wild-type)
# Method in brief: as §1
# [25] = test system: Staphylococcus epidermidis ATCC 14990
# Method in brief: as §1
# [26] = test system: Pseudomonas aeruginosa ATCC 39324
# Method in brief: as §1
substance,measurement,setting,value
"human β-defensin-2 (GIGDPVTCLKSGAICHPVFCPRRYKQIGTCGLPGTKCCKKP; ends and bridges not checked; cysteine pairing not given here) [hβD2, recombinant hβD2]",LD 90 = μg/ml 90% killing,[1],6.25 µg/mL
same,MBC = μg/ml 99.9% killing,[1],50 µg/mL
same,LD 90 = μg/ml 90% killing,[2],25 µg/mL
same,MBC = μg/ml 99.9% killing,[2],100 µg/mL
same,LD 90 = μg/ml 90% killing,[3],100 µg/mL
same,MBC = μg/ml 99.9% killing,[3],>100 µg/mL
same,LD 90 = μg/ml 90% killing,[4],3.125 µg/mL
same,MBC = μg/ml 99.9% killing,[4],12.5 µg/mL
same,LD 90 = μg/ml 90% killing,[5],12.5 µg/mL
same,MBC = μg/ml 99.9% killing,[5],25 µg/mL
same,LD 90 = μg/ml 90% killing,[6],12.5 µg/mL
same,MBC = μg/ml 99.9% killing,[6],50 µg/mL
same,LD 90 = μg/ml 90% killing,[7],50 µg/mL
same,MBC = μg/ml 99.9% killing,[7],100 µg/mL
same,LD 90 = μg/ml 90% killing,[8],6.25 µg/mL
same,MBC = μg/ml 99.9% killing,[8],25 µg/mL
same,LD 90 = μg/ml 90% killing,[9],0.39 µg/mL
same,MBC = μg/ml 99.9% killing,[9],0.78 µg/mL
same,LD 90 = μg/ml 90% killing,[10],50 µg/mL
same,MBC = μg/ml 99.9% killing,[10],>100 µg/mL
same,LD 90 = μg/ml 90% killing,[11],3.125 µg/mL
same,MBC = μg/ml 99.9% killing,[11],12.5 µg/mL
same,LD 90 = μg/ml 90% killing,[12],0.78 µg/mL
same,MBC = μg/ml 99.9% killing,[12],12.5 µg/mL
same,LD 90 = μg/ml 90% killing,[13],50 µg/mL
same,MBC = μg/ml 99.9% killing,[13],100 µg/mL
same,LD 90 = μg/ml 90% killing,[14],>100 µg/mL
same,MBC = μg/ml 99.9% killing,[14],>100 µg/mL
same,LD 90 = μg/ml 90% killing,[15],12.5 µg/mL
same,MBC = μg/ml 99.9% killing,[15],25 µg/mL
same,LD 90 = μg/ml 90% killing,[16],0.39 µg/mL
same,MBC = μg/ml 99.9% killing,[16],1.56 µg/mL
same,LD 90 = μg/ml 90% killing,[17],12.5 µg/mL
same,MBC = μg/ml 99.9% killing,[17],25 µg/mL
same,LD 90 = μg/ml 90% killing,[18],100 µg/mL
same,MBC = μg/ml 99.9% killing,[18],>100 µg/mL
same,LD 90 = μg/ml 90% killing,[19],6.25 µg/mL
same,MBC = μg/ml 99.9% killing,[19],50 µg/mL
same,LD 90 = μg/ml 90% killing,[20],25 µg/mL
same,MBC = μg/ml 99.9% killing,[20],100 µg/mL
same,LD 90 = μg/ml 90% killing,[21],6.25 µg/mL
same,MBC = μg/ml 99.9% killing,[21],25 µg/mL
same,LD 90 = μg/ml 90% killing,[22],12.5 µg/mL
same,MBC = μg/ml 99.9% killing,[22],50 µg/mL
same,LD 90 = μg/ml 90% killing,[23],>100 µg/mL
same,MBC = μg/ml 99.9% killing,[23],>100 µg/mL
same,LD 90 = μg/ml 90% killing,[24],100 µg/mL
same,MBC = μg/ml 99.9% killing,[24],>100 µg/mL
same,LD 90 = μg/ml 90% killing,[25],50 µg/mL
same,MBC = μg/ml 99.9% killing,[25],100 µg/mL
same,LD 90 = μg/ml 90% killing,[26],12.5 µg/mL
same,MBC = μg/ml 99.9% killing,[26],25 µg/mL
